Measured values taken from patent US12419307B2, “Mixtures comprising indazole pesticides” (FMC Corporation, priority 2019, dated 2025).
Read-outs that look alike come from different tables or passages of the source.

Tests used:
Assay type in all cases: in vivo
[1] = system: silverleaf whitefly (Bemisia argentifolii Bellows and Perring); test: Test A: silverleaf whitefly control on cotton or soybean plants, spray, insect mortality after 13 days; details: Bemisia argentifolii, applied alone, read-out: % Mortality (obs)
Protocol: (§1) The pest control protection afforded by the mixtures or compositions is not limited, however, to these species. The analysis of enhanced activity between the mixtures or compositions was determined using Colby's equation. The average % mortality data for the test compounds alone were inserted into the Colby's equation. If the observed (obs) average % mortality was higher than “p”, the expected (exp) % mortality, the mixture or composition had enhanced effects. If the observed average % mortality was equal to or lower than the expected mortality, the mixture or composition either had no enhanced effect. For bioassays where insect feeding damage was evaluated, enhanced activity is identified when the observed plant damage is less than the expected plant damage rating; ratings ranged between 0 (no damage) and 10 (dead plant) and each value was converted to a % plant protection. 100−(Obs Plant Damage*10)
For evaluating control of silverleaf whitefly (Bemisia argentifolii Bellows and Perring) through contact and/or systemic means, each test unit consisted of a small open container with a 12- to 14-day-old cotton plant or 5-7 day old soybean plant inside. This was pre-infested by placing test units into cages containing adult whiteflies so that oviposition on the cotton leaves could occur. The adults were removed from the plants with an air-blast nozzle, and the test units were capped. The test units were then stored 2 to 3 days before spraying.
Test compounds were formulated using a solution containing 10% acetone, 90% water and 300 ppm Activator 90@ Spreader Lo-Foam Formula non-ionic surfactant containing alkylarylpolyoxyethylene, free fatty acids, glycols and 2-propanol (Loveland Industries, Inc.) to provide the desired concentration in ppm. Formulated test solutions were then applied in 1 mL volumes through a SUJ2 atomizer nozzle with ⅛ JJ custom body (Spraying Systems Co.) positioned 1.27 cm (0.5 inches) above the top of each test unit.
The results for all experimental compositions in this test were replicated three times. After spraying of the formulated test composition, each test unit was allowed to dry for 1 hour and the cap removed. The test units were held for 13 days in a growth chamber at 28° C. and 50-70% relative humidity.

[2] = system: Western Flower Thrips (Frankliniella occidentalis Pergande); test: Test B: Western Flower Thrips control on bean plants, plant damage rating converted to % plant protection after 7 days; details: for pest or weed control at 3.18 ppm / pest or weed control at 9.75 ppm: Frankliniella occidentalis, 168 h, read-out: Plant Protection (obs); for Plant Damage (obs): Table 3a; for Plant Damage (obs) / Plant Protection (obs): applied alone
Protocol: as §1
Thus, a plant given a plant damage rating of 3 out of 10 is equivalent to 70% plant protection In all of these tests, compounds of Formula I are Compounds 1 (Cpd 1), 2 (Cpd2), and 3 (Cpd3) and compounds of Formula II are compounds 4 (Cpd4) and 5 (Cpd 5).
For evaluating control of the Western Flower Thrips (Frankliniella occidentalis Pergande) through contact and/or systemic means, each test unit consisted of a small open container with a 5- to 7-day-old bean (var. Soleil) plant inside.
Test solutions were formulated and sprayed with 3 replications as described for Test A. After spraying, the test units were allowed to dry for 1 hour, 22 to 27 adult thrips were added to each unit and then a black, screened cap was placed on top. The test units were held for 7 days at 25° C. and 45-55% relative humidity. To evaluate the level of plant protection provided by each treatment, each test unit was then visually assessed for plant damage inflicted by insect feeding and rated 0-10, where 0=undamaged and 10=plant is dead; the results are listed in Tables 3a-g.

[3] = system: cotton melon aphid (Aphis gossypii Glover); test: Test D: cotton melon aphid control on okra plants, insect mortality after 6 days; details: Aphis gossypii, read-out: % Mortality (obs)
Protocol: The analysis of enhanced activity between the mixtures or compositions was determined using Colby's equation. The average % mortality data for the test compounds alone were inserted into the Colby's equation. If the observed (obs) average % mortality was higher than “p”, the expected (exp) % mortality, the mixture or composition had enhanced effects. If the observed average % mortality was equal to or lower than the expected mortality, the mixture or composition either had no enhanced effect. For bioassays where insect feeding damage was evaluated, enhanced activity is identified when the observed plant damage is less than the expected plant damage rating; ratings ranged between 0 (no damage) and 10 (dead plant) and each value was converted to a % plant protection. 100−(Obs Plant Damage*10)
For evaluating control of cotton melon aphid (Aphis gossypii Glover) through contact and/or systemic means, each test unit consisted of a small open container with a 6- to 7-day-old okra plant inside. This was pre-infested by placing on a leaf of the test plant 30 to 40 aphids on a piece of leaf excised from a culture plant (cut-leaf method). The […] moved onto the test plant as the leaf piece desiccated. After pre-infestation, the soil of the test unit was covered with a layer of sand.
Test compounds were formulated and sprayed as described for Test A. The applications were replicated three times. After spraying of the formulated test compounds, each test unit was allowed to dry for 1 hour and then a black, screened cap was placed on top. […]

Compound `CSCC(C)(C)NC(=O)c1ccc(F)c2nn(-c3cccnc3)cc12` [Cpd 1, N-[1,1-dimethyl-2-(methylthio)ethyl]-7-fluoro-2-(3-pyridinyl)-2H-indazole-4-carboxamide] has a mortality at 50 ppm ([1]; 2 h, Table 2h) of 2.4%, a mortality at 250 ppm ([1]; 2 h, Table 2h) of 7.6% and a mortality at 50 ppm ([1]; 48 h, Table 2d) of 0%. It also gave a mortality at 250 ppm ([1]; 48 h, Table 2d) of 1.3%, a mortality at 50 ppm ([1]; Table 2a) of 0% and a mortality at 250 ppm ([1]; Table 2a) of 18.8%. The mortality at 50 ppm ([1]; Table 2b) was 80%, the mortality at 250 ppm ([1]; Table 2b) was 0% and the mortality at 50 ppm ([1]; Table 2c) was 0%. For the same compound, the mortality at 250 ppm ([1]; Table 2c) was 3.1%, the mortality at 50 ppm ([1]; Table 2e) was 0% and the mortality at 250 ppm ([1]; Table 2e) was 2.2%. For the same compound, the mortality at 50 ppm ([1]; Table 2f) was 9.3%, the mortality at 250 ppm ([1]; Table 2f) was 0% and the mortality at 50 ppm ([1]; Table 2g) was 2.6%. It also gave a mortality at 250 ppm ([1]; Table 2g) of 2.1%, a pest or weed control at 3.18 ppm ([2]; Table 3e, 3.18 ppm) of 76.7% and a pest or weed control at 9.75 ppm ([2]; Table 3e, 9.75 ppm) of 66.7%. It also gave a pest or weed control at 3.18 ppm ([2]; Table 3f, 3.18 ppm) of 33.3%, a pest or weed control at 9.75 ppm ([2]; Table 3f, 9.75 ppm) of 80% and a pest or weed control at 3.18 ppm ([2]; Table 3g, 3.18 ppm) of 10%. For the same compound, the pest or weed control at 9.75 ppm ([2]; Table 3g, 9.75 ppm) was 76.7%, the pest or weed control at 3.18 ppm ([2]; Table 3d, 3.18 ppm) was 63.3% and the pest or weed control at 9.75 ppm ([2]; Table 3d, 9.75 ppm) was 90%. For the same compound, the “Plant Damage (obs)” value ([2]; 3.18 ppm) was 33.3%, the “Plant Damage (obs)” value ([2]; 9.75 ppm) was 73.3% and the “Plant Protection (obs)” value ([2]; Table 3b, 3.18 ppm) was 73.3%. For the same compound, the “Plant Protection (obs)” value ([2]; Table 3b, 9.75 ppm) was 76.7%, the “Plant Protection (obs)” value ([2]; Table 3c, 3.18 ppm) was 63.3% and the “Plant Protection (obs)” value ([2]; Table 3c, 9.75 ppm) was 83.3%. It also gave a mortality at 0.08 ppm ([3]; 5 h, Table 5h) of 37.3%, a mortality at 0.12 ppm ([3]; 5 h, Table 5h) of 50.5% and a mortality at 0.08 ppm ([3]; 120 h, Table 5d) of 23.8%. The mortality at 0.12 ppm ([3]; 120 h, Table 5d) was 49.8%, the mortality at 0.08 ppm ([3]; Table 5a) was 23.8% and the mortality at 0.12 ppm ([3]; Table 5a) was 49.8%. For the same compound, the mortality at 0.08 ppm ([3]; Table 5b) was 23.8%, the mortality at 0.12 ppm ([3]; Table 5b) was 49.8% and the mortality at 0.08 ppm ([3]; Table 5c) was 100%. The mortality at 0.12 ppm ([3]; Table 5c) was 26.7%, the mortality at 0.08 ppm ([3]; Table 5e) was 21.3% and the mortality at 0.12 ppm ([3]; Table 5e) was 35.3%. It also gave a mortality at 0.08 ppm ([3]; Table 5f) of 20.8%, a mortality at 0.12 ppm ([3]; Table 5f) of 39.4% and a mortality at 0.08 ppm ([3]; Table 5g) of 29.1%. For the same compound, the mortality at 0.12 ppm ([3]; Table 5g) was 35.9%.
